Legend:
Assay in all cases: colorimetric pNA release, […] nm
Format in all cases: biochemical
TaeMCAII [1] = biological target: T1, TaeMCAII (Triticum aestivum, UniProt D1MBU0, DEL149-214); conditions: 50 μM Ac-VRPR-pNa, pH 7.0, 30 mM CaCl2, 10 mM DTT; 1 h preincubation at 30°C; irreversible, covalent
T1 construct: gene MCAII; full-length ORF (405 residues, 44 kDa) in pET-28a(+), N-terminal His6 tag, E. coli BL21(DE3)pLysS, Ni-NTA; autoprocessed after Lys148 and Arg214 (66-residue linker removed) into 16 kDa N-terminal and 20 kDa C-terminal subunits
T1 sequence (D1MBU0 1-148): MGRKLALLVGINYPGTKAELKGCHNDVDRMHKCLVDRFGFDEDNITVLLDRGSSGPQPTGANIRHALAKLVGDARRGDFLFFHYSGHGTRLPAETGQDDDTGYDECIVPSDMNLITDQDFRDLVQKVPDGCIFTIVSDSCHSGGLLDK
T1 sequence (D1MBU0 215-405): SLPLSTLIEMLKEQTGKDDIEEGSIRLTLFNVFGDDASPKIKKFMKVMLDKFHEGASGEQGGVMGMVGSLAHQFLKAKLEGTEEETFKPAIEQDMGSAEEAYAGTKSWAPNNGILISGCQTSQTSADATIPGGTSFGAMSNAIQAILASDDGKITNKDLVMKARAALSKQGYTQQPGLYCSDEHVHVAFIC

TaeMCAII [2] = biological target: T1, TaeMCAII; conditions: 50 μM Ac-VRPR-pNa, pH 7.0, 30 mM CaCl2, 10 mM DTT; 1 h preincubation at 30°C; irreversible, covalent; remark: listed apart in the source
TaeMCAII [3] = biological target: T1, TaeMCAII; conditions: 50 μM Ac-VRPR-pNa, pH 7.0, 30 mM CaCl2, 10 mM DTT; 1 h preincubation at 30°C; competitive

CC(C)C[C@H](NC(=O)[C@@H]1O[C@H]1C(=O)O)C(=O)NCCCCN=C(N)N [E-64, 1-trans-epoxysuccinylleucylamide-(4-guanido)-butane]
% activity retained at 100 μM (TaeMCAII [1]): 89%

Cc1ccc(S(=O)(=O)N[C@@H](CCCCN)C(=O)CCl)cc1 [TLCK, N^α-tosyl-L-lysine-chloromethyl ketone]
% decrease of activity at 100 μM (TaeMCAII [2]): 43%

CC(=O)N[C@@H](CC(C)C)C(=O)N[C@@H](CC(C)C)C(=O)N[C@H](C=O)CCCNC(=N)N [leupeptin]
% decrease of activity at 10 μM (TaeMCAII [3]): 88%

Source: PMC3881575, “Biochemical and Bioinformatic Characterization of Type II Metacaspase Protein (TaeMCAII) from Wheat” (Plant Molecular Biology Reporter, 2012)
